The results in this text go back to patent publication US7396847B2, “Oxazolidinone and/or isoxazoline as antibacterial agents” (AstraZeneca AB, priority 2001, dated 2008).

The test system of series [1] is Staphylococcus aureus MRQR (methicillin resistant and quinolone resistant). In words: MIC, agar-dilution, Staphylococci. It counts as cell-based. Conditions: inoculum 10^4 CFU/spot, 37° C., 24 hours. Here is the method:
(§1) The following results were obtained on a standard in-vitro test system. The activity is described in terms of the minimum inhibitory concentration (MIC) determined by the agar-dilution technique with an inoculum size of 10^4 CFU/spot. Typically, compounds are active in the range 0.01 to 256 μg/ml.
(§2) Staphylococci were tested on agar, using an inoculum of 10^4 CFU/spot and an incubation temperature of 37° C. for 24 hours—standard test conditions for the expression of methicillin resistance.

Series [2] deals with Staphylococcus aureus MSQS (methicillin sensitive and quinolone sensitive). In words: MIC, agar-dilution, Staphylococci. The format is cell-based. The note with it: inoculum 10^4 CFU/spot, 37° C., 24 hours. Here is the method: as §1, §2
The test system of another series is Streptococcus pneumoniae. The series is described as follows: MIC, agar-dilution on agar with 5% defibrinated horse blood, Streptococci. It counts as cell-based. Conditions: 10^4 CFU/spot, 37° C., 5% carbon dioxide, 48 hours. Here is the method:
as §1
(§3) Streptococci and enterococci were tested on agar supplemented with 5% defibrinated horse blood, an inoculum of 10^4 CFU/spot and an incubation temperature of 37° C. in an atmosphere of 5% carbon dioxide for 48 hours—blood is required for the growth of some of the test organisms. Fastidious Gram negative organisms were tested in Mueller-Hinton broth, supplemented with hemin and NAD, grown aerobically for 24 hours at 37° C., and with an innoculum of 5×10^4 CFU/well.

In the next series the test system is Streptococcus pyogenes. The series is described as above. Conditions: 10^4 CFU/spot, 37° C., 5% carbon dioxide, 48 hours. It counts as cell-based. Here is the method: as §1, §3
For the next series, the system named is Haemophilus influenzae. The series is described as follows: MIC, fastidious Gram negative organisms in Mueller-Hinton broth. It counts as cell-based. The note with it: Mueller-Hinton broth with hemin and NAD, aerobic, 24 hours, 37° C., 5×10^4 CFU/well. As to the method: as §1, §3
In the next series the test system is Moraxella catarrhalis. The series is described as above. It counts as cell-based. Conditions: Mueller-Hinton broth with hemin and NAD, aerobic, 24 hours, 37° C., 5×10^4 CFU/well. As to the method: as §1, §3

SMILES strings stand for the structures. Converted amounts (≈) assume the structure as drawn.

In the case of `CC(=O)NC[C@H]1CN(c2ccc(-c3ccc(N4C[C@H](CNC(C)=O)OC4=O)cc3F)c(F)c2)C(=O)O1` [Example 1, (5S,5′S)-N-(3-{4′-[5-(Acetylamino-methyl)-2-oxo-oxazolidin-3-yl]-2,2′-difluoro-biphenyl-4-yl}-2-oxo-oxazolidin-5-ylmethyl)-acetamide], the MIC was 0.5 µg/mL (≈ 0.995 µM) in series [1]; 0.25 µg/mL (≈ 0.498 µM) in series [2]; 0.06 µg/mL (≈ 0.119 µM) against Streptococcus pneumoniae; 0.13 µg/mL (≈ 0.259 µM) in the series with Streptococcus pyogenes; 2 µg/mL (≈ 3.98 µM) in the series with Haemophilus influenzae; 0.5 µg/mL (≈ 0.995 µM) in the series with Moraxella catarrhalis.

Broadly, the melting point is the temperature of the solid-liquid transition. For `CC(=O)NC[C@H]1CN(c2ccc(-c3ccc(N4C[C@H](CNC(C)=O)OC4=O)s3)s2)C(=O)O1` [Example 62, N-{[(5S)-3-(5′-{5-[(Acetylamino)methyl]-2-oxo-1,3-oxazolidin-3-yl}-2,2′-bithien-5-yl)-2-oxo-1,3-oxazolidin-5-yl]methyl}acetamide], the melting point lay in the range of 257 to 260 °C.
